Results taken from patent US10093713B2, “GIP-GLP-1 dual agonist compounds and methods” (priority 2013, dated 2018).
Where two headings read alike, the source gives them in different places. *1 amine or outer side, *2 acyl side, *3 side chain or, on linkers, in order; H or OH if unused. Where a SMILES comes first, the peptide text is derived from it. Side-chain parts run from the residue outwards. [ ]: non-standard residue; d: D form. The star is where a group is joined. C20 diacid = O=C(O)CCCCCCCCCCCCCCCCCCC(=O)*; C18 diacid = O=C(O)CCCCCCCCCCCCCCCCC(=O)*; γGlu = O=C(O)[C@H](CCC(=O)[*:2])N[*:1]; AEEA = NCCOCCOCC(=O)O; Aib = CC(C)(N)C(=O)O

Columns and labels:
human GLP-1 R = biological target: T1, human GLP-1 R (Homo sapiens, UniProt P43220); assay: Human GLP-1 receptor (GLP-1 R) activity assay, cAMP induction (AlphaScreen) in HEK293 cells; type: cell-based
T1 construct: expressed in transfected cells
T1 sequence (P43220 24-463): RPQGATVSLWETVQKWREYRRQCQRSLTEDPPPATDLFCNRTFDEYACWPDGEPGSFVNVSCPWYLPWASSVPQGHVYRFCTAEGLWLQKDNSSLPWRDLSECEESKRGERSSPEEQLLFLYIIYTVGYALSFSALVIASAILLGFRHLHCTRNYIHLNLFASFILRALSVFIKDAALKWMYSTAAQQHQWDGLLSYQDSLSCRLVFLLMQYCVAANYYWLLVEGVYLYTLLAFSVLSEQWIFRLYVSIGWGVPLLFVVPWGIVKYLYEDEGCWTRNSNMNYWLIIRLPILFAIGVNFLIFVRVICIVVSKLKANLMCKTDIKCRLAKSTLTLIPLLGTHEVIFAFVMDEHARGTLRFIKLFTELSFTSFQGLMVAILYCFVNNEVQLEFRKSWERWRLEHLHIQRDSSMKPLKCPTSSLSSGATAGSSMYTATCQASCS
Outline: (§1)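 Stable HEK293 clones expressing human GIP R or GLP-1 R, seeded 1 day before; cells washed in Tyrode's buffer (10 mM HEPES, pH 7.4), stimulated, then lysed. cAMP measured by AlphaScreen bead competition (1 h, room temperature, dark). EC50 = concentration giving half-maximal cAMP elevation, from curves of absolute cAMP (nM) vs log concentration.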

human GIP R = biological target: T2, human GIP R (Homo sapiens, UniProt P48546); assay: Human GIP receptor (GIP R) activity assay, cAMP induction (AlphaScreen) in HEK293 cells; type: cell-based; settings: read-out: hGIP-R cAMP EC50 average value
T2 construct: expressed in transfected cells
T2 sequence (P48546 22-466): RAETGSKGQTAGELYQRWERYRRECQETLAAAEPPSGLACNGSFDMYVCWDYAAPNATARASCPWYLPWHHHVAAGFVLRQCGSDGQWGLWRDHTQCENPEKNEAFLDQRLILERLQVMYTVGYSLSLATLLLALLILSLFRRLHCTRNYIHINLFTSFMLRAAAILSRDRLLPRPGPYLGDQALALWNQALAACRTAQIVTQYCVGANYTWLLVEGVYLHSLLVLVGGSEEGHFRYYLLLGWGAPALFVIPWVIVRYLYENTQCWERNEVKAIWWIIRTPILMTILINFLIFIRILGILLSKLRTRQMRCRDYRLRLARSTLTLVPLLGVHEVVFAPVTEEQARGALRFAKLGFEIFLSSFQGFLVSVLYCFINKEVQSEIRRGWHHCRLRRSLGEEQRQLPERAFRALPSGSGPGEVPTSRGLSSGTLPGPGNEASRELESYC
Outline: as §1

[1] = Table 3, most comprehensive data, read-out: hGLP-1-R cAMP EC50 average value
[2] = Table 3, most comprehensive data
[3] = Table 2, HEK293 cells expressing human GLP-1 R, read-out: hGLP1-R cAMP EC50 average value
[4] = Table 2, HEK293 cells expressing human GIP R

| Structure (SMILES) | EC50 (human GLP-1 R; [1]) [nM] | EC50 (human GIP R; [2]) [pM] | EC50 (human GLP-1 R; [3]) [nM] | EC50 (human GIP R; [4]) [pM] | EC50 (human GLP-1 R; Table 2a, secondary assay study, read-out: hGLP1-R cAMP EC50 average value) [nM] | EC50 (human GIP R; Table 2a, secondary assay study) [pM] |
| --- | --- | --- | --- | --- | --- | --- |
| CC[C@H](C)[C@H](NC(=O)[C@H](CO)NC(=O)[C@H](Cc1ccc(O)cc1)NC(=O)[C@H](CC(=O)O)NC(=O)[C@H](CO)NC(=O)[C@@H](NC(=O)[C@H](Cc1ccccc1)NC(=O)[C@@H](NC(=O)CNC(=O)[C@H](CCC(=O)O)NC(=O)C(C)(C)NC(=O)[C@@H](N)Cc1ccc(O)cc1)[C@@H](C)O)[C@@H](C)O)C(=O)N[C@@H](C)C(=O)N[C@@H](CC(C)C)C(=O)N[C@@H](CC(=O)O)C(=O)N[C@@H](CCCCN)C(=O)N[C@@H](CCCCNC(=O)COCCOCCNC(=O)COCCOCCNC(=O)CC[C@H](NC(=O)CCCCCCCCCCCCCCCCC(=O)O)C(=O)O)C(=O)N[C@@H](C)C(=O)N[C@@H](CCC(N)=O)C(=O)N[C@@H](CCCNC(=N)N)C(=O)N[C@@H](C)C(=O)N[C@@H](Cc1ccccc1)C(=O)N[C@H](C(=O)N[C@@H](CCC(=O)O)C(=O)N[C@@H](Cc1c[nH]c2ccccc12)C(=O)N[C@@H](CC(C)C)C(=O)N[C@@H](CC(C)C)C(=O)N[C@@H](C)C(=O)N[C@@H](CCC(N)=O)C(=O)NCC(=O)N1CCC[C@H]1C(=O)N[C@@H](CO)C(=O)N[C@@H](CO)C(=O)NCC(=O)N[C@@H](C)C(=O)N1CCC[C@H]1C(=O)N1CCC[C@H]1C(=O)N1CCC[C@H]1C(=O)N[C@@H](CO)C(N)=O)C(C)C [Compound 51] (H-Y[Aib]EGTFTSDYSIALDKK([AEEA-AEEA-γGlu-C18 diacid])AQRAFVEWLLAQGPSSGAPPPS-NH2) | 0.017 | 5 |  |  |  |  |
| CC[C@H](C)[C@H](NC(=O)[C@H](CO)NC(=O)[C@H](Cc1ccc(O)cc1)NC(=O)[C@H](CC(=O)O)NC(=O)[C@H](CO)NC(=O)[C@@H](NC(=O)[C@H](Cc1ccccc1)NC(=O)[C@@H](NC(=O)CNC(=O)[C@H](CCC(=O)O)NC(=O)C(C)(C)NC(=O)[C@@H](N)Cc1ccc(O)cc1)[C@@H](C)O)[C@@H](C)O)C(=O)N[C@@H](C)C(=O)N[C@@H](CC(C)C)C(=O)N[C@@H](CCC(=O)O)C(=O)N[C@@H](CCCCN)C(=O)N[C@@H](CCCCNC(=O)COCCOCCNC(=O)COCCOCCNC(=O)CC[C@H](NC(=O)CCCCCCCCCCCCCCCCC(=O)O)C(=O)O)C(=O)N[C@@H](C)C(=O)N[C@@H](CCC(N)=O)C(=O)N[C@@H](CCCNC(=N)N)C(=O)N[C@@H](C)C(=O)N[C@@H](Cc1ccccc1)C(=O)N[C@H](C(=O)N[C@@H](CCC(=O)O)C(=O)N[C@@H](Cc1c[nH]c2ccccc12)C(=O)N[C@@H](CC(C)C)C(=O)N[C@@H](CCC(=O)O)C(=O)N[C@@H](C)C(=O)N[C@@H](CCC(N)=O)C(=O)NCC(=O)N1CCC[C@H]1C(=O)N[C@@H](CO)C(=O)N[C@@H](CO)C(=O)NCC(=O)N[C@@H](C)C(=O)N1CCC[C@H]1C(=O)N1CCC[C@H]1C(=O)N1CCC[C@H]1C(=O)N[C@@H](CO)C(N)=O)C(C)C [Compound 22] (H-Y[Aib]EGTFTSDYSIALEKK([AEEA-AEEA-γGlu-C18 diacid])AQRAFVEWLEAQGPSSGAPPPS-NH2) | 0.061 | 60 | 0.061 | 60 |  |  |
| CC[C@H](C)[C@H](NC(=O)[C@H](CO)NC(=O)[C@H](Cc1ccc(O)cc1)NC(=O)[C@H](CC(=O)O)NC(=O)[C@H](CO)NC(=O)[C@@H](NC(=O)[C@H](Cc1ccccc1)NC(=O)[C@@H](NC(=O)CNC(=O)[C@H](CCC(=O)O)NC(=O)C(C)(C)NC(=O)[C@@H](N)Cc1ccc(O)cc1)[C@@H](C)O)[C@@H](C)O)C(=O)N[C@@H](C)C(=O)N[C@@H](CC(C)C)C(=O)N[C@@H](CC(=O)O)C(=O)N[C@@H](CCCCN)C(=O)N[C@@H](CCCCNC(=O)COCCOCCNC(=O)COCCOCCNC(=O)CC[C@H](NC(=O)CCCCCCCCCCCCCCCCCCC(=O)O)C(=O)O)C(=O)N[C@@H](C)C(=O)N[C@@H](CCC(N)=O)C(=O)N[C@@H](CCCCN)C(=O)N[C@@H](C)C(=O)N[C@@H](Cc1ccccc1)C(=O)N[C@H](C(=O)N[C@@H](CCC(=O)O)C(=O)N[C@@H](Cc1c[nH]c2ccccc12)C(=O)N[C@@H](CC(C)C)C(=O)N[C@@H](CC(C)C)C(=O)N[C@@H](C)C(=O)N[C@@H](C)C(=O)NCC(=O)N1CCC[C@H]1C(=O)N[C@@H](CO)C(=O)N[C@@H](CO)C(=O)NCC(=O)N[C@@H](C)C(=O)N1CCC[C@H]1C(=O)N1CCC[C@H]1C(=O)N1CCC[C@H]1C(=O)N[C@@H](CO)C(N)=O)C(C)C [Compound 45] (H-Y[Aib]EGTFTSDYSIALDKK([AEEA-AEEA-γGlu-C20 diacid])AQKAFVEWLLAAGPSSGAPPPS-NH2) | 0.024 | 5 |  |  |  |  |
| CC[C@H](C)[C@H](NC(=O)[C@H](CO)NC(=O)[C@H](Cc1ccc(O)cc1)NC(=O)[C@H](CC(=O)O)NC(=O)[C@H](CO)NC(=O)[C@@H](NC(=O)[C@H](Cc1ccccc1)NC(=O)[C@@H](NC(=O)CNC(=O)[C@H](CCC(=O)O)NC(=O)C(C)(C)NC(=O)[C@@H](N)Cc1ccc(O)cc1)[C@@H](C)O)[C@@H](C)O)C(=O)N[C@@H](Cc1ccc(O)cc1)C(=O)N[C@@H](CC(C)C)C(=O)N[C@@H](CC(=O)O)C(=O)N[C@@H](CCCCN)C(=O)N[C@@H](CCCCNC(=O)COCCOCCNC(=O)COCCOCCNC(=O)CCCCCCCCCCCCCCCCC(=O)O)C(=O)N[C@@H](C)C(=O)N[C@@H](CCC(N)=O)C(=O)N[C@@H](CCCNC(=N)N)C(=O)N[C@@H](C)C(=O)N[C@@H](Cc1ccccc1)C(=O)N[C@H](C(=O)N[C@@H](CCC(=O)O)C(=O)N[C@@H](Cc1c[nH]c2ccccc12)C(=O)N[C@@H](CC(C)C)C(=O)N[C@@H](CC(C)C)C(=O)N[C@@H](C)C(=O)N[C@@H](CCC(N)=O)C(=O)NCC(=O)N1CCC[C@H]1C(=O)N[C@@H](CO)C(=O)N[C@@H](CO)C(=O)NCC(=O)N[C@@H](C)C(=O)N1CCC[C@H]1C(=O)N1CCC[C@H]1C(=O)N1CCC[C@H]1C(=O)N[C@@H](CO)C(N)=O)C(C)C [Compound 5] (H-Y[Aib]EGTFTSDYSIYLDKK([AEEA-AEEA-C18 diacid])AQRAFVEWLLAQGPSSGAPPPS-NH2) |  |  | 0.014 | 12 | 0.014 | 11 |
| CC[C@H](C)[C@H](NC(=O)[C@H](CO)NC(=O)[C@H](Cc1ccc(O)cc1)NC(=O)[C@H](CC(=O)O)NC(=O)[C@H](CO)NC(=O)[C@@H](NC(=O)[C@H](Cc1ccccc1)NC(=O)[C@@H](NC(=O)CNC(=O)[C@H](CCC(=O)O)NC(=O)C(C)(C)NC(=O)[C@@H](N)Cc1ccc(O)cc1)[C@@H](C)O)[C@@H](C)O)C(=O)N[C@@H](C)C(=O)N[C@@H](CC(C)C)C(=O)N[C@@H](CC(=O)O)C(=O)N[C@@H](CCCCN)C(=O)N[C@@H](CCCCNC(=O)COCCOCCNC(=O)COCCOCCNC(=O)CC[C@H](NC(=O)CCCCCCCCCCCCCCCCC(=O)O)C(=O)O)C(=O)N[C@@H](C)C(=O)N[C@@H](CCC(N)=O)C(=O)N[C@@H](CCCNC(=N)N)C(=O)N[C@@H](C)C(=O)N[C@@H](Cc1ccccc1)C(=O)N[C@H](C(=O)N[C@@H](CC(N)=O)C(=O)N[C@@H](Cc1c[nH]c2ccccc12)C(=O)N[C@@H](CC(C)C)C(=O)N[C@H](C(=O)N[C@@H](C)C(=O)NC(C)(C)C(=O)N[C@@H](CCCCN)C(N)=O)C(C)C)C(C)C [Compound 19] (H-Y[Aib]EGTFTSDYSIALDKK([AEEA-AEEA-γGlu-C18 diacid])AQRAFVNWLVA[Aib]K-NH2) |  | 7 | 0.014 | 7.3 |  |  |
